From patent US6228373A, “Peptides with immunomodulatory effects” (priority 1995, dated 2001)
Positions of bridges follow the written chain, without caps; N, C: chain ends. Residues, ends and D or L forms follow the SMILES beside them. Chains are numbered I, II in the order given.

Tests used:
[1] = system: rat spontaneously developed mammary carcinoma cells; assay: Effects of peptides on tumour growth; format: in vivo; conditions: Wistar rats, subcutaneous mammary carcinoma, gavage once a day, all dose levels tested
Method: 10^4 rat spontaneously developed mammary carcinoma cells in isotonic saline and 5% normal syngeneic rat serum were inoculated subcutaneously in the right hindlegs of Wistar rats (8 per group). Tumour size was estimated by palpation and caliper measurements of a first diameter (a), being the largest diameter, and the one (b) perpendicular to the first. The volume of the tumour was calculated using the formula: V=0.4 ab^2.
Tumour volume is given in mm^3 as a median for each group of rats (8 per group).
Drug and control (isotonic saline) were administered by gavage (oesophagealtube) once a day (a.m.) on each of days 4-8 and 11-15 for peptides
i) Gly-Pro-Cys-Cys-Pro-Gly (SEQ ID NO:20; 3 μmol/kg/day); ii) Ala-Pro-Cys-Cys-Val-Pro (SEQ ID NO:21; 0.03 and […]);

[2] = system: mice (DTH test as per Example 43); assay: DTH test, comparison of different routes of administration; format: in vivo
Method: The mice were sensitized, Day 0, by epicutaneous application of 150 μl of an absolute ethanol-acetone (3:1) solution containing 3% OXA on the shaved abdomen. Treatment with peptides 1 to 41 inclusive, or vehicle (phosphate buffer, pH 7.4, containing a mixture of Buffer A and Buffer B in the proportion 63%:37% B (Buffer A: Na2 HPO4, 0.89 g/100 ml, EDTA 0.05 g/100 ml; Buffer B: NaH2 PO4, 0.69 g/100 ml, EDTA 0.05 g/100 ml) was initiated by oral feeding immediately after sensitization and continued once daily (a.m) until Day 6. Seven days after sensitization, both ears of all mice were challenged on both sides by topical application of 20 μl 1% OXA dissolved in peanut oil. Ear thickness was measured prior to and at 24 hours or 48 hours after challenge using an Oditest spring calliper. Challenges and measurements were performed under light pentobarbital anaesthesia.
The intensity of the DTH reactions was measured according to the method described by van Loveren H., et al. (1984) J. Immunol. Methods 67: 311 and expressed according to the formula: Tt24/48 -Tt0 μm units, where t0, t24 and t48 represent the ear thickness at time 0, +24 hrs or +48 hrs after challenge respectively, in individual tests (T). The results are expressed as the mean +/- S.E.M.. The level of significance between means of the groups is obtained by Student's two-tailed t-test. […]
Peptide (Peptide No. 4-derived from SEQ ID NO:24) was administered to mice (groups of 10) orally and by parenteral injection (intravenous and subcutaneous injection) at doses of from 0.0003 μmol/kg body weight through to 3.0 μmol/kg body weight as per example 43. […] The mean and standard error of the mean for each group of mice (10 per group) was recorded.
Peptide (SEQ ID NO:24, dimerized as shown in Box 36 of Table 1) was administered to mice (groups of 10) at doses of 0.03 μmol/kg body weight and 3.0 μmol/kg body weight. […] The mean and standard error of the mean for each group of mice (10 per group) was calculated.

[3] = 0.03 and 3.0 μmol/kg body weight

## NCC(=O)N1CCC[C@H]1C(=O)N[C@@H](CS)C(=O)N[C@@H](CS)C(=O)N1CCC[C@H]1C(=O)NCC(=O)O [Peptide 1, Gly-Pro-Cys-Cys-Pro-Gly] (H-GPCCPG-OH)
[1]
  tumour volume compared with the control: marked decrease in tumour volume

## O=C(CNC(=O)[C@@H]1CCCN1)N[C@H]1CSSC[C@@H](C(=O)NCC(=O)N2CCC[C@H]2C(=O)O)NC1=O [Peptide 4] (H-PGCCGP-OH; disulfide 3-4)
[2]; 0.0003 to 3.0 μmol/kg body weight, oral vs intravenous and subcutaneous injection
  immunomodulatory response, oral administration versus other parenteral means: more marked immunomodulatory response

## O=C(CNC(=O)[C@@H]1CCCN1)N[C@H]1CSSC[C@H](NC(=O)CNC(=O)[C@@H]2CCCN2)C(=O)N[C@H](C(=O)NCC(=O)N2CCC[C@H]2C(=O)O)CSSC[C@@H](C(=O)NCC(=O)N2CCC[C@H]2C(=O)O)NC1=O [Peptide 36] (I: H-PGCCGP-OH / II: H-PGCCGP-OH; disulfide I:3-II:3, I:4-II:4)
[2]; [3]
  immunomodulatory effect in the DTH test relative to the control: significant immunomodulatory effect
  reaction by oral route relative to parenteral routes at the same dosage: stronger reaction

## CC[C@H](C)[C@H](NC(=O)[C@@H](N)C(C)C)C(=O)N[C@H]1CSSC[C@@H](C(=O)N[C@@H](CC(C)C)C(=O)N[C@H](C(=O)O)[C@@H](C)O)NC1=O [SEQ ID NO:26] (H-VICCLT-OH; disulfide 3-4)
[1]
  tumour volume compared with the control: marked decrease in tumour volume
